According to patent publication US10757935B2, “Composition comprising a pesticide and an alkoxylated ester” (BASF SE, priority 2015, dated 2020):

Legend:
[1] = system: powdery mildew (Blumeria graminis f. sp. hordei); test: Curative greenhouse trial with Epoxiconazole on barley; type: in vivo; conditions: barley leaf segments (F and F-1) on benzimidazole agar, inoculation 2 days prior to application, Epoxiconazole 5 g/ha, adjuvant 50 ml/ha, assessment 14 DAT
Protocol: (§1) The influence of the adjuvants was tested separately in a curative and protective greenhouse trial on barley. In each case, barley was cultivated in a substrate “Frustorder Erde” for three weeks with three plants per pot. Each treatment was replicated 14 times. The adjuvant dose rate in each treatment was 50 ml/ha. The assessment of the infection rate was conducted by a trained biologist.
(§2) The adjuvants used in the trials are di-isononanyl-adipate cyclohexanedicarboxylic acid-isononanol-diester, 1,2-cyclohexanediol-di-isononate, di-isononanyl-3EO-adipate, cyclohexanedicarboxylic acid-isononanol-3EO-diester and 1,2-cyclohexanediol-6EO-di-isononate.
An Epoxiconazole SC 250 was used. Inoculation of the leaves with powdery mildew (Blumeria graminis f. sp. hordei) was done 2 days prior to application of the Epoxiconazole formulation. From the stem, 15 leaf segments were cut off with a length of 10 cm using each the flag leaf (F) and the 2nd leaf (F-1). Altogether, the leaves of each were placed on benzimidazole agar i.e. 0.5% Agar with 40 ppm benzimidazole. The concentration of Epoxiconazole for the leaf application was 5 g/ha. Assessment was done 14 days after treatment (14 DAT) of the efficacy against powdery mildew by counting the mildew pustules per leaf on a length of 7 cm.

[2] = system: powdery mildew (Blumeria graminis f. sp. hordei); test: Protective greenhouse trial with Azoxystrobin on barley; type: in vivo; conditions: barley leaf segments (F and F-1) on agar cut 4 h after application, then inoculated, Azoxystrobin 5 g/ha, adjuvant 50 ml/ha, incubation time 10 d
Protocol: as §1, §2
4 h after application with the equivalent of 5 g/ha Azoxystrobin, leaf segments were cut off at a length of 7 cm from the stem. 15 leaves of each the F and the F-1 leaf were placed on agar. After the inoculation with powdery mildew (Blumeria graminis f. sp. hordei), the incubation time was 10 d. The assessment of the infection rate was conducted by a trained biologist.

Row | SMILES | Powdery mildew infestation (%) [1] | Powdery mildew infestation (%) [2]
1 | Fc1ccc([C@]2(Cn3cncn3)O[C@H]2c2ccccc2Cl)cc1 (racemic) [Epoxiconazole] | 33% | –
2 | CO/C=C(/C(=O)OC)c1ccccc1Oc1cc(Oc2ccccc2C#N)ncn1 [Azoxystrobin] | – | 36%
